Assay results reported in ChEMBL document CHEMBL1155214, “Structure-affinity relationships of glutamine mimics incorporated into phosphopeptides targeted to the SH2 domain of signal transducer and activator of transcription 3” (J Med Chem, 2009).

The compounds below were run against T1, Signal transducer and activator of transcription 3 (Homo sapiens, UniProt P40763) (assay: Ratio of compound IC50 to 4-(3-((S)-1-((S)-2-((S)-5-amino-1-(benzylamino)-1,5-dioxopentan-2-ylcarbamoyl)pyrrolidin-1-yl)-4-methyl-1-oxopentan-2-ylamino)-3-oxoprop-1-enyl)phenyl dihydrogen phosphate IC50 for Stat3 SH2 domain).
T1 sequence (P40763 whole entry, the tested form may be a part): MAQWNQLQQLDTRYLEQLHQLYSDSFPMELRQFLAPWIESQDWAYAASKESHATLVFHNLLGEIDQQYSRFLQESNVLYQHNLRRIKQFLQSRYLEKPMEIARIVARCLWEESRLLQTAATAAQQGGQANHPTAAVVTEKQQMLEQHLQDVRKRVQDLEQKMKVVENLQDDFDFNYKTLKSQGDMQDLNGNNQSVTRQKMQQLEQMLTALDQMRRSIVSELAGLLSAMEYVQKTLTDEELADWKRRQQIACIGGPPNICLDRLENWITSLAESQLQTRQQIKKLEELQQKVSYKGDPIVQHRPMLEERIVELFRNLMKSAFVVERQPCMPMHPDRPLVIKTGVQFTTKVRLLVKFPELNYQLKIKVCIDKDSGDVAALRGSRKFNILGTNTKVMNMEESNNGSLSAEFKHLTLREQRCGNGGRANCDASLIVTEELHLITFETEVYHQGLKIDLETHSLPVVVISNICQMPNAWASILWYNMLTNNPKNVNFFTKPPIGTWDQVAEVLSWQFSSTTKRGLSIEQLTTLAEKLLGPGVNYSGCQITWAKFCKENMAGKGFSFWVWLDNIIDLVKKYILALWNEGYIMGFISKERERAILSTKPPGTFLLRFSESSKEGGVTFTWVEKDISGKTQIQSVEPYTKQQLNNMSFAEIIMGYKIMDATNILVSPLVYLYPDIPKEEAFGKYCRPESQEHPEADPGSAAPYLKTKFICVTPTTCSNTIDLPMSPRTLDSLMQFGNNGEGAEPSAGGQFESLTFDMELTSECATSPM

In order of rising Ratio IC50:
1. CC(C)C[C@H](NC(=O)/C=C/c1ccc(OP(=O)(O)O)cc1)C(=O)N1CCC[C@H]1C(=O)N[C@@H](COC(N)=O)C(=O)NCc1ccccc1  3
2. CC(C)C[C@H](NC(=O)/C=C/c1ccc(OP(=O)(O)O)cc1)C(=O)N1CCC[C@H]1C(=O)N[C@H](C(=O)NCc1ccccc1)[C@@H](C)OC(N)=O  6

Each compound was assayed against T1, Signal transducer and activator of transcription 3 (assay: Inhibition of Stat3 SH2 domain by fluorescence polarization assay).

In order of rising IC50:
1. CC(C)C[C@H](NC(=O)/C=C/c1ccc(OP(=O)(O)O)cc1)C(=O)N1C[C@H]2C[C@H]2[C@H]1C(=O)N[C@@H](CCC(N)=O)C(=O)NCc1ccccc1  68 nM
2. CC(C)C[C@H](NC(=O)/C=C/c1ccc(OP(=O)(O)O)cc1)C(=O)N1C[C@H]2C[C@H]2[C@H]1C(=O)N[C@@H](CCC(N)=O)[C@@H](C)OCc1ccccc1 (mixture of isomers)  69 nM
3. CC(C)C[C@H](NC(=O)/C=C/c1ccc(OP(=O)(O)O)cc1)C(=O)N1C[C@H]2C[C@H]2[C@H]1C(=O)NCCOCc1ccccc1  69 nM
4. CC(C)C[C@H](NC(=O)/C=C/c1ccc(OP(=O)(O)O)cc1)C(=O)N1C[C@H]2C[C@H]2[C@H]1C(=O)N[C@@H](CCC(N)=O)COCc1ccccc1  94 nM
5. CC(C)C[C@H](NC(=O)/C=C/c1ccc(OP(=O)(O)O)cc1)C(=O)N1CCC[C@H]1C(=O)NCCNC(N)=O  131 nM
6. CC(C)C[C@H](NC(=O)/C=C/c1ccc(OP(=O)(O)O)cc1)C(=O)N1C[C@H]2C[C@H]2[C@H]1C(=O)N[C@H](C)CCC(N)=O  175 nM
7. CC(C)C[C@H](NC(=O)/C=C/c1ccc(OP(=O)(O)O)cc1)C(=O)N1C[C@H]2C[C@H]2[C@H]1C(=O)NCCCC(N)=O  303 nM
8. CC(C)C[C@H](NC(=O)/C=C/c1ccc(OP(=O)(O)O)cc1)C(=O)N1CCC[C@H]1C(=O)NCCOC(N)=O  360 nM
9. CC(C)C[C@H](NC(=O)/C=C/c1ccc(OP(=O)(O)O)cc1)C(=O)N1C[C@H]2C[C@H]2[C@H]1C(=O)N[C@@H](CCC(N)=O)[C@@H](C)O  437 nM
10. CC(C)C[C@H](NC(=O)/C=C/c1ccc(OP(=O)(O)O)cc1)C(=O)N1CCC[C@H]1C(=O)N[C@H](COCc1ccccc1)COC(N)=O  454 nM
11. CC(C)C[C@H](NC(=O)/C=C/c1ccc(OP(=O)(O)O)cc1)C(=O)N1C[C@H]2C[C@H]2[C@H]1C(=O)N[C@@H](CCC(N)=O)C(C)C  511 nM
12. CC(=O)NC[C@H](CCC(N)=O)NC(=O)[C@@H]1CCCN1C(=O)[C@H](CC(C)C)NC(=O)/C=C/c1ccc(OP(=O)(O)O)cc1  589 nM
13. CC(C)C[C@H](NC(=O)/C=C/c1ccc(OP(=O)(O)O)cc1)C(=O)N1CCC[C@H]1C(=O)N[C@@H](CCC(N)=O)COC(N)=O  615 nM
14. CC(C)C[C@H](NC(=O)/C=C/c1ccc(OP(=O)(O)O)cc1)C(=O)N1CCC[C@H]1C(=O)N[C@H](C)COC(N)=O  797 nM
15. CC(C)C[C@H](NC(=O)/C=C/c1ccc(OP(=O)(O)O)cc1)C(=O)N1CCC[C@H]1C(=O)N[C@@H](CCC(N)=O)Cc1ccc(O)cc1  848 nM
16. CC(C)C[C@H](NC(=O)/C=C/c1ccc(OP(=O)(O)O)cc1)C(=O)N1CCC[C@H]1C(=O)N[C@@H](CCC(N)=O)CN(Cc1ccccc1)Cc1ccccc1  1080 nM
17. CC(C)C[C@H](NC(=O)/C=C/c1ccc(OP(=O)(O)O)cc1)C(=O)N1CCC[C@H]1C(=O)N[C@@H](CCC(N)=O)CN1CCCCC1  1210 nM
18. CC(C)C[C@H](NC(=O)/C=C/c1ccc(OP(=O)(O)O)cc1)C(=O)N1CCC[C@H]1C(=O)N[C@H](CN)CCC(N)=O  1240 nM
19. CC(C)C[C@H](NC(=O)/C=C/c1ccc(OP(=O)(O)O)cc1)C(=O)N1CCC[C@H]1C(=O)N[C@@H](CCC(N)=O)CN1CCN(C)CC1  1310 nM
20. CC(C)C[C@H](NC(=O)/C=C/c1ccc(OP(=O)(O)O)cc1)C(=O)N1CCC[C@H]1C(=O)N[C@H](C)CNC(N)=O  1350 nM
21. CCCC[C@H](CCC(N)=O)NC(=O)[C@@H]1CCCN1C(=O)[C@H](CC(C)C)NC(=O)/C=C/c1ccc(OP(=O)(O)O)cc1  1350 nM
22. CC(C)C[C@H](NC(=O)/C=C/c1ccc(OP(=O)(O)O)cc1)C(=O)N1CCC[C@H]1C(=O)N[C@@H](CCC(N)=O)CN1CCOCC1  1530 nM
23. CC(C)C[C@H](CCC(N)=O)NC(=O)[C@@H]1[C@@H]2C[C@@H]2CN1C(=O)[C@H](CC(C)C)NC(=O)/C=C/c1ccc(OP(=O)(O)O)cc1  1630 nM
24. CC(C)C[C@H](NC(=O)/C=C/c1ccc(OP(=O)(O)O)cc1)C(=O)N1CCC[C@H]1C(=O)N[C@@H](CCC(N)=O)C(C)C  1880 nM
25. CC(C)C[C@H](CCC(N)=O)NC(=O)[C@@H]1CCCN1C(=O)[C@H](CC(C)C)NC(=O)/C=C/c1ccc(OP(=O)(O)O)cc1  4900 nM
